# Earlier results in article PMC8468386, “Rapid Identification of Potential Drug Candidates from Multi-Million Compounds’ Repositories. Combination of 2D Similarity Search with 3D Ligand/Structure Based Methods and In Vitro Screening” (Molecules, 2021).
# Tested on: PDE5
# Parameters: method as in PMID 21947759
# Conditions: PDE5 inhibitor first round hit compounds
row,IC50,Compound
1,3650 nM,CCc1ccccc1OCc1nc2ccc(S(=O)(=O)N3CCOCC3)cc2[nH]1 [compound 1]
2,1990 nM,Cn1c(=O)c2c(nc(Oc3cccc(C=NO)c3)n2Cc2ccccc2Cl)n(C)c1=O [compound 2]
3,190 nM,COC(=O)c1sccc1NC(=O)N1CCc2c([nH]c3ccccc23)C1c1ccc(OC)cc1 (stereo not drawn) [compound 4]
4,6740 nM,COc1ccc(C2c3c(n(C)c4ccccc34)C(=O)N2CC(=O)N2CCN(c3ncccn3)CC2)cc1 (stereo not drawn) [compound 5]

# Tested on: Complement Component C1s
# Parameters: method as in PMID 31600984
# Conditions: C1s inhibitors
row,IC50,Compound
1,549 nM,Cc1sc2nc(-c3ccco3)oc(=O)c2c1C [#17]
2,241 nM,O=c1nc(-c2cccs2)oc2cc(Cl)ccc12 [#21]
